Reference: patent publication US20250179047A1, “5-[7-(3,4-DIHYDRO-1H-ISOQUINOLINE-2-CARBONYL)-1,2,3,4 TETRAHYDROISOQUINOLIN-6-YL]-1H-PYRROLE-3-CARBOXAMIDE DERIVATIVES, PHARMACEUTICAL COMPOSITIONS CONTAINING THEM AND THEIR USES AS PRO-APOPTOTIC AGENTS” (LES LABORATOIRES SERVIER, priority 2022, published 2025)

Legend:
BCL2 G101V [1] = target: BCL2 G101V (Homo sapiens, UniProt P10415, G101V); experiment: TR-FRET competitive binding assay, BCL2 G101V; conditions: BCL2 G101V; Ki determined from IC50; read-out: TR_FRET EKI_Bcl2 G101V
In short: (§1)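 Ki derived from IC50 (11-point dilution, 520/495 nm emission ratio) for displacing a fluorescein-labelled PUMA peptide (2 or 20 nM). Target was 0.5 nM E. coli-expressed Halo-tagged BCL2 (1-207) or BCLXL (2-196), terbium-labelled on Halo. Incubation 2 h at 23°C in pH 7.5 Hepes with 150 mM NaCl and 5% DMSO.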

BCL2 G101V [2] = experiment: TR-FRET competitive binding assay, BCL2 G101V; set-up: species or system human; conditions: ratio Ki BCL2 G101V / Ki BCL2 WT
In short: as §1

BCL2 F104I = BCL2 F104I (Homo sapiens, UniProt P10415, F104I); experiment: TR-FRET competitive binding assay, BCL2 F104I; conditions: Ki determined from IC50, read-out: TR_FRET EKI_Bcl2 F104I
In short: as §1

BCL2 D111A = BCL2 D111A (Homo sapiens, UniProt P10415, D111A); experiment: TR-FRET competitive binding assay, BCL2 D111A; conditions: Ki determined from IC50, read-out: TR_FRET EKI_Bcl2 D111A
In short: as §1

BCLXL WT = BCLXL WT (Homo sapiens (Human), UniProt Q07817); experiment: TR-FRET competitive binding assay, BCLXL WT; conditions: for Ki: BCLXL WT, Ki determined from IC50, read-out: TR_FRET EKI BclxL; for TR_FRET EKI BCLxL/WT selectivty ratio: ratio Ki BCLxL / Ki BCL2 WT
In short: as §1

KMS12PE Bcl2 D103Y = experiment: In vitro cytotoxicity CellTiterGlo 72 h, KMS12PE Bcl2 D103Y; format: cell-based; conditions: Homo sapiens, KMS-12-PE, read-out: C50 nM, KMS12PE Bcl2 D103Y
Experimental: (§2) KMS-12-PE (ACC 606) were purchased from the Leibniz-Institute DSMZ (Braunschweig, Germany) and were grown at 37° C. in a humidified atmosphere with 5% CO2 in media recommended by the suppliers. Lentiviral particles containing Bcl-2 wild type (also named “Bcl2 WT”), Bcl-2 mutated on G101V (also named “Bcl2 G101V”), Bcl-2 mutated on D103Y (also named “Bcl2 D103Y”), Bcl-2 mutated on D103V (also named “Bcl2 D103V”), Bcl-2 mutated on D103E (also named “Bcl2 D103E”), Bcl-2 mutated on F104I (also named “Bcl2 F104I”), Bcl-2 mutated on F104L (also named “Bcl2 F104L”), Bcl-2 mutated on D111A (also named “Bcl2 D111A”), Bcl-2 mutated on A113G (also named “Bcl2 A113G”), Bcl-2 mutated on R129L (also named “Bcl2 R129L”), Bcl-2 mutated on V156D (also named “Bcl2 V156D”) were cloned into pcLV-CMV-DEST-IRES-TagRFP. Lentiviral particles (1×10^6) were mixed with Polybrene at 8 μg/ml and transduced by spinoculation for 1 h at 32° C. and incubated overnight. After 8 days, TagRFP positive-cells were sorted by FACS. BCL2 expression was monitored by immunoblotting using anti-Flag and anti-BCL2 antibodies. Cells were seeded into 96-wells plates and treated with 1:3.16 serial dilution of compounds (9 different concentrations). Cell viability was assessed using CellTiterGlo reagent following treatment for 72 h. Results were normalized to the viability of cells without compounds (control wells). The C50 values were calculated using nonlinear regression algorithms in XCell software.

KMS12PE Bcl2 D111A = experiment: In vitro cytotoxicity CellTiterGlo 72 h, KMS12PE Bcl2 D111A; format: cell-based; conditions: Homo sapiens, KMS-12-PE, read-out: C50 nM, KMS12PE Bcl2 D111A
Experimental: as §2

KMS12PE Bcl2 D103V = experiment: In vitro cytotoxicity CellTiterGlo 72 h, KMS12PE Bcl2 D103V; format: cell-based; conditions: Homo sapiens, KMS-12-PE, read-out: C50 nM, KMS12PE Bcl2 D103V
Experimental: as §2

KMS12PE Bcl2 F104L = experiment: In vitro cytotoxicity CellTiterGlo 72 h, KMS12PE Bcl2 F104L; format: cell-based; conditions: Homo sapiens, KMS-12-PE, read-out: C50 nM, KMS12PE Bcl2 F104L
Experimental: as §2

Chain of BCLXL WT (Q07817 other isoform, or with tags, fused parts or gaps): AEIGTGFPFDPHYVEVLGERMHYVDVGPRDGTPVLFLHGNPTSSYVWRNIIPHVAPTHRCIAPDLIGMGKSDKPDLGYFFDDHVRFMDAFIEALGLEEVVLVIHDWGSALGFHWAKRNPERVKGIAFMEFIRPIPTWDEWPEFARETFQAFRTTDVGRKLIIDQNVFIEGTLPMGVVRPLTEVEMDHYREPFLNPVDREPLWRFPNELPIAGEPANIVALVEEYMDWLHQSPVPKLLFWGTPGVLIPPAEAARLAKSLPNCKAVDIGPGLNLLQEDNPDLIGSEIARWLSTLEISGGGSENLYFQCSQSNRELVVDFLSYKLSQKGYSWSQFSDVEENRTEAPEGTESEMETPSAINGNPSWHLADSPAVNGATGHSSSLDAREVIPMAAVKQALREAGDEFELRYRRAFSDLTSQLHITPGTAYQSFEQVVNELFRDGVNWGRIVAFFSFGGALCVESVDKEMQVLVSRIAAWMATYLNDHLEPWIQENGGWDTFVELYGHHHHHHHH

Ki (BCL2 G101V [1]) | TR_FRET EKI G101V/WT selectivty ratio (BCL2 G101V [2]) | Ki (BCL2 F104I) | Ki (BCL2 D111A) | Ki (BCLXL WT) | TR_FRET EKI BCLxL/WT selectivty ratio (BCLXL WT) | Structure (SMILES) | IC50 (KMS12PE Bcl2 D103Y) | IC50 (KMS12PE Bcl2 D111A) | IC50 (KMS12PE Bcl2 D103V) | IC50 (KMS12PE Bcl2 F104L)
0.2 nM | 2.4 | 0.3 nM | 0.25 nM | 2.6 nM | 26.5 | Cc1c(N(C(=O)c2cc(-c3cc4c(cc3C(=O)N3Cc5ccccc5C[C@H]3C)CN(C(=O)Cc3ccc(OCCN5CCSCC5)cc3)CC4)n(C)c2C)c2ccc(O)cc2)cc(C#N)n1C [Example 55, N-(5-cyano-1,2-dimethyl-1H-pyrrol-3-yl)-N-(4-hydroxyphenyl)-1,2-dimethyl-5-{7-[(3R)-3-methyl-1,2,3,4-tetrahydroisoquinoline-2-carbonyl]-2-(2-{4-[2-(thiomorpholin-4-yl)ethoxy]phenyl}acetyl)-1,2,3,4-tetrahydroisoquinolin-6-yl}-1H-pyrrole-3-carboxamide] | 2.5 nM | 2.2 nM | 4.48 nM | 19.7 nM
1 nM | 4.5 | 4.91 nM | 0.89 nM | 4.4 nM | 20.0 | Cc1c(N(C(=O)c2cc(-c3cc4c(cc3C(=O)N3Cc5ccccc5C[C@H]3C)CN(C(=O)Cc3ccc(CCN5CCC(F)(F)CC5)cc3)CC4)n(C)c2C)c2ccc(O)cc2)cc(C#N)n1C [Example 51, N-(5-cyano-1,2-dimethylpyrrol-3-yl)-5-[2-(2-{4-[2-(4,4-difluoropiperidin-1-yl)ethyl]phenyl}acetyl)-7-{[(3R)-3-methyl-3,4-dihydro-1H-isoquinolin-2-yl]carbonyl}-3,4-dihydro-1H-isoquinolin-6-yl]-N-(4-hydroxyphenyl)-1,2-dimethylpyrrole-3-carboxamide] | 2.79 nM | 3.21 nM | 4.63 nM | 58.9 nM
0.3 nM | 3.1 | 0.29 nM | 0.19 nM | 1.1 nM | 10.0 | Cc1c(N(C(=O)c2cc(-c3cc4c(cc3C(=O)N3Cc5ccccc5C[C@H]3C)CN(C(=O)Cc3ccc(OCCN5CCOCC5)cc3)CC4)n(C)c2C)c2ccc(O)cc2)cc(C#N)n1C [Example 21, N-(5-cyano-1,2-dimethyl-1H-pyrrol-3-yl)-N-(4-hydroxyphenyl)-1,2-dimethyl-5-{7-[(3R)-3-methyl-1,2,3,4-tetrahydroisoquinoline-2-carbonyl]-2-(2-{4-[2-(morpholin-4-yl)ethoxy]phenyl}acetyl)-1,2,3,4-tetrahydroisoquinolin-6-yl}-1H-pyrrole-3-carboxamide] | 2.1 nM | 1.27 nM | 3.34 nM | 15.8 nM
0.5 nM | 2.3 | 0.77 nM | 0.64 nM | 3 nM | 15.2 | COC[C@@H]1Cc2ccccc2CN1C(=O)c1cc2c(cc1-c1cc(C(=O)N(c3ccc(O)cc3)c3cc(C#N)n(C)c3C)c(C)n1C)CCN(C(=O)Cc1ccc(OCCC3CCOCC3)cc1F)C2 [Example 52, N-(5-cyano-1,2-dimethylpyrrol-3-yl)-5-[2-(2-{2-fluoro-4-[2-(oxan-4-yl)ethoxy]phenyl}acetyl)-7-{[(3S)-3-(methoxymethyl)-3,4-dihydro-1H-isoquinolin-2-yl]carbonyl}-3,4-dihydro-1H-isoquinolin-6-yl]-N-(4-hydroxyphenyl)-1,2-dimethylpyrrole-3-carboxamide] | 1.8 nM | 1.21 nM | 2.78 nM | 11.1 nM

More lines, now with the values behind:

Structure (SMILES) | Ki (BCL2 G101V [1]) | TR_FRET EKI G101V/WT selectivty ratio (BCL2 G101V [2]) | Ki (BCL2 F104I) | Ki (BCL2 D111A) | Ki (BCLXL WT) | TR_FRET EKI BCLxL/WT selectivty ratio (BCLXL WT) | IC50 (KMS12PE Bcl2 D103Y) | IC50 (KMS12PE Bcl2 D111A) | IC50 (KMS12PE Bcl2 D103V) | IC50 (KMS12PE Bcl2 F104L)
Cc1c(N(C(=O)c2cc(-c3cc4c(cc3C(=O)N3Cc5ccccc5C[C@H]3C)CN(C(=O)Cc3ccc(OCCC5CCOCC5)cc3)CC4)n(C)c2C)c2ccc(O)cc2)cc(C#N)n1C [Example 27, N-(5-cyano-1,2-dimethyl-1H-pyrrol-3-yl)-N-(4-hydroxyphenyl)-1,2-dimethyl-5-{7-[(3R)-3-methyl-1,2,3,4-tetrahydroisoquinoline-2-carbonyl]-2-(2-{4-[2-(oxan-4-yl)ethoxy]phenyl}acetyl)-1,2,3,4-tetrahydroisoquinolin-6-yl}-1H-pyrrole-3-carboxamide] | 1.2 nM | 1.5 | 2.36 nM | 1.67 nM | 10.1 nM | 12.6 | 1.1 nM | 0.86 nM | 1.55 nM | 5.51 nM
Cc1c(N(C(=O)c2cc(-c3cc4c(cc3C(=O)N3Cc5ccccc5C[C@H]3C)CN(C(=O)Cc3ccc(N5CCN6CCOC[C@@H]6C5)cc3F)CC4)n(C)c2C)c2ccc(O)cc2)cc(C#N)n1C [Example 45, 5-[2-(2-{4-[(9aS)-octahydropyrazino[2,1-c][1,4]oxazin-8-yl]-2-fluorophenyl}acetyl)-7-[(3R)-3-methyl-1,2,3,4-tetrahydroisoquinoline-2-carbonyl]-1,2,3,4-tetrahydroisoquinolin-6-yl]-N-(5-cyano-1,2-dimethyl-1H-pyrrol-3-yl)-N-(4-hydroxyphenyl)-1,2-dimethyl-1H-pyrrole-3-carboxamide] | 0.4 nM | 4.8 | 1.65 nM | 0.19 nM | 2.5 nM | 31.6 | 0.2 nM | 2.05 nM | 2.7 nM | 22.5 nM
Cc1c(N(C(=O)c2cc(-c3cc4c(cc3C(=O)N3Cc5ccccc5C[C@H]3CN3CCC[C@H](C)C3)CN(C(=O)Cc3ccc(OCCN5CCOCC5)cc3F)CC4)n(C)c2C)c2ccc(O)cc2)cc(C#N)n1C [Example 107] | 0.4 nM | 4.3 | 0.34 nM | 0.22 nM | 7.8 nM | 87.6 | 0.97 nM | 1.36 nM | 1.94 nM | 7.04 nM
Cc1c(N(C(=O)c2cc(-c3cc4c(cc3C(=O)N3Cc5ccccc5C[C@H]3C)CN(C(=O)Cc3ccc(OCCN5CCC(F)CC5)cc3)CC4)n(C)c2C)c2ccc(O)cc2)cc(C#N)n1C [Example 53, N-(5-cyano-1,2-dimethyl-1H-pyrrol-3-yl)-5-[2-(2-{4-[2-(4-fluoropiperidin-1-yl)ethoxy]phenyl}acetyl)-7-[(3R)-3-methyl-1,2,3,4-tetrahydroisoquinoline-2-carbonyl]-1,2,3,4-tetrahydroisoquinolin-6-yl]-N-(4-hydroxyphenyl)-1,2-dimethyl-1H-pyrrole-3-carboxamide] | 0.2 nM | 2.8 | 0.35 nM | 0.18 nM | 1.2 nM | 18.5 | 2.61 nM | 2.19 nM | 5.38 nM | 25.5 nM
Cc1c(N(C(=O)c2cc(-c3cc4c(cc3C(=O)N3Cc5ccccc5C[C@H]3CN3CCCCC3)CN(C(=O)Cc3ccc(OCCN5CCOCC5)cc3F)CC4)n(C)c2C)c2ccc(O)cc2)cc(C#N)n1C [Example 43, N-(5-cyano-1,2-dimethylpyrrol-3-yl)-5-[2-(2-{2-fluoro-4-[2-(morpholin-4-yl)ethoxy]phenyl}acetyl)-7-{[(3S)-3-(piperidin-1-ylmethyl)-3,4-dihydro-1H-isoquinolin-2-yl]carbonyl}-3,4-dihydro-1H-isoquinolin-6-yl]-N-(4-hydroxyphenyl)-1,2-dimethylpyrrole-3-carboxamide] | 0.2 nM | 5.0 | 0.16 nM | 0.1 nM | 2.2 nM | 55.0 | 1.28 nM | 1.13 nM | 2 nM | 8.49 nM
